From patent US12691101B2, “Compound and method for preventing or treating of respiratory diseases comprising the same as an active ingredient” (YONSEI UNIVERSITY, UNIVERSITY - INDUSTRY FOUNDATION (UIF), priority 2019, dated 2026) come the findings set out here.

Entries after “also recorded” stand apart in the source; their conditions may differ. Read-outs that look alike come from different tables or passages of the source.

For one experiment, the system named is PDS mRNA. Kind of experiment: Real-time PCR of PDS mRNA in IL-4-treated HNE cells. The experiment is classed as cell-based, human. Conditions: IL-4-treated HNE cells (F10: 120 hours after treatment). The method, then: The total messenger RNA (mRNA) was extracted using TRIzol reagent (Invitrogen, Carlsbad, CA, USA), and was reverse-transcribed using a random hexamer primer, an oligo(dT) primer and SuperScript® III reverse transcriptase (Invitrogen). Quantitative real-time PCR was performed using StepOnePlus Real-Time PCR system (Applied Biosystems, Foster City, CA, USA) and Thunderbird SYBR qPCR mix (Tokyobo, Osaka, Japan). Thermal cycling conditions included the initial stage at 95° C. for 5 minutes, and subsequent 40 cycles at 95° C. for 10 seconds, at 55° C. for 20 seconds and at 72° C. for […].

Experiment [1] has as its target T1, human wild-type (WT)-pendrin (Homo sapiens, UniProt O43511).
T1 construct: expressed in transfected cells
T1 sequence (O43511 1-780): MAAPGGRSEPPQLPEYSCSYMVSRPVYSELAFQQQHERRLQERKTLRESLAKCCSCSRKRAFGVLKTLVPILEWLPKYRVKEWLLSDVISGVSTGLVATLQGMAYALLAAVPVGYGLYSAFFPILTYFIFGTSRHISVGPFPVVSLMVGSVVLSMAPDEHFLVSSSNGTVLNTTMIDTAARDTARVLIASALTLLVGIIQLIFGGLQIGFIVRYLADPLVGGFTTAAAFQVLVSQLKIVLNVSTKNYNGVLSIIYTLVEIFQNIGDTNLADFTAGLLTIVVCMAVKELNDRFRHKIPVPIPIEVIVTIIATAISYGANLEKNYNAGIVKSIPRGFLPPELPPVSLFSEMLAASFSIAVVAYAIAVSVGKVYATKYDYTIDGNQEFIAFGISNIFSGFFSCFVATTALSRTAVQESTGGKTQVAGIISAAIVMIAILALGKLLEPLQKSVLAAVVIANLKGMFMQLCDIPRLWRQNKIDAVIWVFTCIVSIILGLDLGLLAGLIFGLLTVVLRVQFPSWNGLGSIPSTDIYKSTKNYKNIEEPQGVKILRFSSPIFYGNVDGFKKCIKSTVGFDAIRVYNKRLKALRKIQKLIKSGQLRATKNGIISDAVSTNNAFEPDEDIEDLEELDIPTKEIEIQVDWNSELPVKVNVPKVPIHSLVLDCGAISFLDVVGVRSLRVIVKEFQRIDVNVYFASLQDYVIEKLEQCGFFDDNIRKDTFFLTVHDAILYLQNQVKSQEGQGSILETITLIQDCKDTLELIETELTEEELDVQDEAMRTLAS
Put plainly: Pendrin-mediated Cl^−/OH^− exchange activity in CHO-K1 cells. It counts as cell-based. On the procedure:
For measurement of Cl^−/OH^− exchange activity, intracellular pH (pHi) was measured in WT-pendrin expressing CHO-K1 and HNE cells using pH sensor SNARF5-AM (Molecular Probes). The cells were treated with 5 μM SNARF5-AM for 30 minutes, and then were equipped in a perfusion chamber on the stage of a reverse fluorescence microscope (Nikon, Tokyo, Japan) equipped with a cooled charge-coupled device camera (Zyla sCMOS), image acquisition and analysis software (Meta Imaging Series 7.7). To measure the Cl^−/OH^− exchange activity, HEPES buffer solution was changed to CV-free HEPES buffer solution for generation of an Cl^− gradient driving Cl^− outflow and OH^− inflow of cytosol by pendrin.

In experiment [2] the target is T1, human wild-type (WT)-pendrin. Put plainly: Pendrin-mediated Cl^−/I^− exchange activity, YFP fluorescence in CHO-K1 cells. Particulars: for inhibition at 30 µM: CHO-K1, 30 μM, read-out: Pendrin inhibitory activity at 30 μM (%); for inhibition of pendrin Cl^−/I^− exchange activity: CHO-K1 cells, pretreated 10 minutes. The experiment is classed as cell-based.
[3] abbreviates: compounds showing pendrin inhibitory activity of 50% or more at 30 μM, read-out: IC50.

`CC(C)(C)c1ccc(C2=NC(=Cc3ccc[nH]3)C(=O)O2)cc1` [F10, 4-((1H-pyrrol-2-yl)methylene)-2-(4-(tert-butyl)phenyl)oxazol-5 (4H)-one]: in the experiment with PDS mRNA, the “PDS mRNA expression level” value is “did not show any effect”. Further, the “inhibition of pendrin Cl^−/OH^− exchange activity” value in experiment [1] is given as “strongly inhibit”. Besides, in experiment [2], the inhibition at 30 µM turned out to be 100% and the “inhibition of pendrin Cl^−/I^− exchange activity” value is “strongly inhibit”. The IC50 in experiment [2] (FIG. 4(b), read-out: inhibitory effect on the Cl—/I— exchange activity: IC50) is ~0.08 µM. In experiment [2] (setting [3]), the IC50 turned out to be 0.08 ± 0.02 µM.
With `CC(C)(C)c1ccc(C2=NC(=Cc3cccs3)C(=O)O2)cc1` [F56, 2-(4-(tert-butyl)phenyl)-4-(thiophen-2-ylmethylene)oxazol-5(4H)-one], the “PDS mRNA expression level” value with PDS mRNA is “without changes of the mRNA expression level”. Also, the “inhibition of pendrin Cl^−/OH^− exchange activity” value in experiment [1] is recorded as “strongly inhibited”. Besides, in experiment [2], the inhibition at 30 µM turned out to be 84.7% and the “inhibition of pendrin Cl^−/I^− exchange activity” value is reported as “significantly inhibited; also recorded: strongly inhibited”. The IC50 in experiment [2] (FIG. 4(a), read-out: 50% inhibition of Cl^−/I^− exchange activity) is ~3 µM. Further, the IC50 in experiment [2] (setting [3]) was found to be 3.3 ± 0.64 µM.
